Results taken from ChEMBL document CHEMBL4385604, “Identification of Pyrrolo[2,3- d]pyrimidine-Based Derivatives as Potent and Orally Effective Fms-like Tyrosine Receptor Kinase 3 (FLT3) Inhibitors for Treating Acute Myelogenous Leukemia” (J Med Chem, 2019).

Columns and labels:
MOLM-13 [1] = assay: Induction of apoptosis in human MOLM13 cells assessed as necrotic cells at 1 nM after 48 hrs by Annexin V/propidium iodide staining based flow cytometry (reference value: 0.29%); assay type: functional
MOLM-13 [2] = assay: Induction of apoptosis in human MOLM13 cells assessed as necrotic cells at 10 nM after 48 hrs by Annexin V/propidium iodide staining based flow cytometry (reference value: 0.29%); assay type: functional

Question: What does the source list for `C=CCn1cc(-c2ccc(NC(=O)Nc3cc(C(C)(C)C)on3)cc2)c2c(N)ncnc21`?
Answer: Activity (MOLM-13 [1]): 0.76%; Activity (MOLM-13 [2]): 0.12%
